The structures appear in SMILES notation.

This assay has as its target T1, IGFR kinase (Homo sapiens, UniProt P08069).
T1 construct: purchased Millipore
The assay can be described thus: Enzyme assay (c), IGFR kinase, Caliper LabChip. Type of assay: biochemical. The following applies: 30 nM IGFR kinase, 6 uM ATP, 3 uM peptide mix; read-out: IGFR IC50.

T1 sequence (P08069 31-1367): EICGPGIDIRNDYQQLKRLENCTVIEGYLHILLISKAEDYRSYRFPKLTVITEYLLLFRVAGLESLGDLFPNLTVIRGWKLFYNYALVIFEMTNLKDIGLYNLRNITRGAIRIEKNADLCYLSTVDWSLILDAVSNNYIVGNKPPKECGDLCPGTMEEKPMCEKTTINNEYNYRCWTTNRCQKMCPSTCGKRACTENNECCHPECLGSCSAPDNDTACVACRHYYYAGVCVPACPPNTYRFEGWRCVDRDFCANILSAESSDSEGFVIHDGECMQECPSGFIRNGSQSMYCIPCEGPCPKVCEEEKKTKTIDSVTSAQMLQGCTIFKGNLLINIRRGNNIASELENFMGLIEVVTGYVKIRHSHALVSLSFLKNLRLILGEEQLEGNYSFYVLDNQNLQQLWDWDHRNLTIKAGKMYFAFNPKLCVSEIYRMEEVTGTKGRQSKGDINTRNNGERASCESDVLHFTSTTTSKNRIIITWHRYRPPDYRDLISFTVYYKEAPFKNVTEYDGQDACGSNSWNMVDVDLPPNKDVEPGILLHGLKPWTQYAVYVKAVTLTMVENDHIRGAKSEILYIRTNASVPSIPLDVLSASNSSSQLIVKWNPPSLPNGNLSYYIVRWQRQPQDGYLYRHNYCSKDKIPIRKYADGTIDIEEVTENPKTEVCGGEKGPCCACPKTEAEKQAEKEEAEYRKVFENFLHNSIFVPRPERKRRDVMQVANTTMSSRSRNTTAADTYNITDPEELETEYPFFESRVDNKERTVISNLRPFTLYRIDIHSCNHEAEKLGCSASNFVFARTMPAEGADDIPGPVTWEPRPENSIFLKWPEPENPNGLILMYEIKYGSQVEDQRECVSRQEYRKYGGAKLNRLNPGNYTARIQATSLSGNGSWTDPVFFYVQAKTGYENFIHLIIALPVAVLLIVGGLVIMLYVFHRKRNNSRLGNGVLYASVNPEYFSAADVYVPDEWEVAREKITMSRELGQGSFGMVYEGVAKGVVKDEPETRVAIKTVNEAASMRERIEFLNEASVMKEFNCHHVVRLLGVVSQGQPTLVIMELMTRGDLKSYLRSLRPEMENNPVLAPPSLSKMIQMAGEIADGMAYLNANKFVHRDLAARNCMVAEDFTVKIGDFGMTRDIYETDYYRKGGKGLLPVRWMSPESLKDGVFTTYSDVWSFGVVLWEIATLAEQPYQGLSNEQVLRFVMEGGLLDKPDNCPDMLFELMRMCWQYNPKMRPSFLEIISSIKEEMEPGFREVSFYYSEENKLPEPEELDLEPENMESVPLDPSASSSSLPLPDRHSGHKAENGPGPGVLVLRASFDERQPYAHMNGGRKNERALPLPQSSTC

A word on the IC50: it is the point on the concentration scale where inhibition reaches its midpoint. With `COc1cc(N2CCN(C[C@@H](C)O)CC2)ccc1Nc1ncc(C)c(-c2cnc3ccccn23)n1` [Example 105, (2R)-1-[4-[4-[(4-imidazo[1,2-a]pyridin-3-yl-5-methyl-pyrimidin-2-yl)amino]-3-methoxy-phenyl]piperazin-1-yl]propan-2-ol], the IC50 is 26 nM. Consider `COc1cc(O[C@H]2CCN(C(=O)[C@H](C)O)C2)ccc1Nc1ncc(Cl)c(-c2cnc3ccccn23)n1` [Example 15A, (2S)-1-[(3S)-3-[4-[(5-chloro-4-imidazo[1,2-a]pyridin-3-yl-pyrimidin-2-yl)amino]-3-methoxy-phenoxy]pyrrolidin-1-yl]-2-hydroxy-propan-1-one], for which the IC50 was determined as 36 nM.

In the case of `COc1cc(N2CCN(C(C)=O)CC2)ccc1Nc1ncc(F)c(-c2cnc3ccccn23)n1` [Example 72, 1-[4-[4-[(5-fluoro-4-imidazo[1,2-a]pyridin-3-yl-pyrimidin-2-yl)amino]-3-methoxy-phenyl]piperazin-1-yl]ethanone], the IC50 turned out to be 96 nM. The figure for `COc1cc(C2CCN(C(=O)N(C)C)CC2)ccc1Nc1ncc(Cl)c(-c2cnc3ccccn23)n1` [Example 57, 4-[4-[(5-chloro-4-imidazo[1,2-a]pyridin-3-yl-pyrimidin-2-yl)amino]-3-methoxy-phenyl]-N,N-dimethyl-piperidine-1-carboxamide] is 6 nM. The figure for `COc1cc(N2CCN(C(=O)CO)CC2)ccc1Nc1ncc(Cl)c(-c2cnc3cc(C)ccn23)n1` [Example 251, 1-[4-[4-[[5-chloro-4-(7-methylimidazo[1,2-a]pyridin-3-yl)pyrimidin-2-yl]amino]-3-methoxy-phenyl]piperazin-1-yl]-2-hydroxy-ethanone] is 9 nM; for `COc1cc(N2CCNC(=O)C2)ccc1Nc1ncc(F)c(-c2cnc3ccccn23)n1` [Example 88, 4-[4-[(5-fluoro-4-imidazo[1,2-a]pyridin-3-yl-pyrimidin-2-yl)amino]-3-methoxy-phenyl]piperazin-2-one] it is 23 nM; for `CNCC(=O)N1CCN(c2ccc(Nc3ncc(Cl)c(-c4cnn5ccccc45)n3)c(OC)c2)CC1` [Example 133, 1-[4-[4-[(5-chloro-4-pyrazolo[1,5-a]pyridin-3-yl-pyrimidin-2-yl)amino]-3-methoxy-phenyl]piperazin-1-yl]-2-methylamino-ethanone] it is 3 nM. The figure for `COc1cc(C(CO)CNC(C)=O)ccc1Nc1ncc(Cl)c(-c2cnc3ccccn23)n1` (stereo not drawn) [Example 276, N-[2-[4-[(5-chloro-4-imidazo[1,2-a]pyridin-3-yl-pyrimidin-2-yl)amino]-3-methoxy-phenyl]-3-hydroxy-propyl]acetamide] is 15 nM; for `COc1cc(N2CCN(C(=O)[C@@H](C)N)CC2)ccc1Nc1ncc(Cl)c(-c2cnc3cc(C)ccn23)n1` [Example 254, (2R)-2-amino-1-[4-[4-[[5-chloro-4-(7-methylimidazo[1,2-a]pyridin-3-yl)pyrimidin-2-yl]amino]-3-methoxy-phenyl]piperazin-1-yl]propan-1-one] it is 5 nM; for `COc1cc(N2CCN(CCO)CC2)ccc1Nc1ncc(C#N)c(-c2cnc3ccccn23)n1` [Example 116, 2-[[4-[4-(2-hydroxyethyl)piperazin-1-yl]-2-methoxy-phenyl]amino]-4-imidazo[1,2-a]pyridin-3-yl-pyrimidine-5-carbonitrile] it is 13 nM. As for `COc1cc(C2CCNC(C)C2)ccc1Nc1ncc(Cl)c(-c2cnc3ccccn23)n1` (stereo not drawn) [Example 59.2, 5-chloro-4-imidazo[1,2-a]pyridin-3-yl-N-[2-methoxy-4-(2-methyl-4-piperidyl)phenyl]pyrimidin-2-amine], the concentration for half-maximal inhibition (IC50) is 7 nM.

Consider `COc1cc(N2CCN(C(=O)N3CCNCC3)CC2)ccc1Nc1ncc(Cl)c(-c2cnc3ccccn23)n1` [Example 47.3, [4-[4-[(5-chloro-4-imidazo[1,2-a]pyridin-3-yl-pyrimidin-2-yl)amino]-3-methoxy-phenyl]piperazin-1-yl]-piperazin-1-yl-methanone], for which the IC50 is 6 nM.

For the origin of these results see US20100105655A1, “NOVEL COMPOUNDS 515” (ASTRAZENECA AB, priority 2008, published 2010).
